Consider four compounds from article PMC8618034, “In Silico Structure-Guided Optimization and Molecular Simulation Studies of 3-Phenoxy-4-(3-trifluoromethylphenyl)pyridazines as Potent Phytoene Desaturase Inhibitors” (Molecules, 2021).

The assay deals with T1, Synechococcus PDS (phytoene desaturase) (Synechococcus elongatus, UniProt P26294).
T1 construct: recombinant, pET15b-Synechococcus PDS
Briefly: SPR (Biacore 8K, protein immobilized on CM5 chip). Format: binding. For orientation: In SPR one partner is held on a chip, and binding of the other changes the refractive index at the surface.

Structures are written as SMILES. Where two headings read alike, the source gives them in different places.

T1 sequence (P26294 whole entry): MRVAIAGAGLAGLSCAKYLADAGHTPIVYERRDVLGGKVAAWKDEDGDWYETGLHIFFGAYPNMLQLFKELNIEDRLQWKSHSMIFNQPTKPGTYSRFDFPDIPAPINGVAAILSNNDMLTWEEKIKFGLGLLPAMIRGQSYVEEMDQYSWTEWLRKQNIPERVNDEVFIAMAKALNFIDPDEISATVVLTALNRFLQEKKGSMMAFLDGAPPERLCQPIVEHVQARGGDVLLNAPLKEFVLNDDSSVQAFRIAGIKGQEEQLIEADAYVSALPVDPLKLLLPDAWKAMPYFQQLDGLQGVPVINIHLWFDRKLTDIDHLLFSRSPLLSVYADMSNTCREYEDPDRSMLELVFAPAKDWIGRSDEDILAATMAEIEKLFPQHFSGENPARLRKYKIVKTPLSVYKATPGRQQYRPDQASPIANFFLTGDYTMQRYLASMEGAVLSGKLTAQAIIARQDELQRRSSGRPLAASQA

As for `Cc1cc(-c2cccc(C(F)(F)F)c2)c(Oc2ccc(C(F)(F)F)cc2)nn1` [2a, 6-methyl-3-(4-(trifluoromethyl)phenoxy)-4-(3(trifluoromethyl)phenyl)pyridazine], the Kd (read-out: Kd) was found to be 7.08 µM.

For `CCc1cc(-c2cccc(C(F)(F)F)c2)c(Oc2cc(F)c(F)c(F)c2)nn1` [3h, 6-ethyl-4-(3-(trifluoromethyl)phenyl)-3-(3,4,5-trifluorophenoxy)pyridazine], the Kd (read-out: Kd) was 63.2 µM.

As for `Cc1cc(-c2cccc(C(F)(F)F)c2)c(Oc2ccc(C#N)cc2)nn1` [compound 1], where the note is “read-out: Kd”, the Kd came out at 43.5 µM.

The compound `O=C(Nc1ccc(F)cc1F)c1cccnc1Oc1cccc(C(F)(F)F)c1` [diflufenican] came in with a Kd of 70.8 µM.

One may read the Kd as the concentration at which binding is half-saturated.
